How the values were obtained:
[1] = biological target: T1, ScVip1 phosphatase domain (ScVip1^PD E991A) (Saccharomyces cerevisiae, UniProt Q06685, E991A); assay: NMR and malachite green phosphatase assays; format: biochemical
T1 construct: gene VIP1; residues 536–1107
T1 sequence (Q06685 536-1107 E991A): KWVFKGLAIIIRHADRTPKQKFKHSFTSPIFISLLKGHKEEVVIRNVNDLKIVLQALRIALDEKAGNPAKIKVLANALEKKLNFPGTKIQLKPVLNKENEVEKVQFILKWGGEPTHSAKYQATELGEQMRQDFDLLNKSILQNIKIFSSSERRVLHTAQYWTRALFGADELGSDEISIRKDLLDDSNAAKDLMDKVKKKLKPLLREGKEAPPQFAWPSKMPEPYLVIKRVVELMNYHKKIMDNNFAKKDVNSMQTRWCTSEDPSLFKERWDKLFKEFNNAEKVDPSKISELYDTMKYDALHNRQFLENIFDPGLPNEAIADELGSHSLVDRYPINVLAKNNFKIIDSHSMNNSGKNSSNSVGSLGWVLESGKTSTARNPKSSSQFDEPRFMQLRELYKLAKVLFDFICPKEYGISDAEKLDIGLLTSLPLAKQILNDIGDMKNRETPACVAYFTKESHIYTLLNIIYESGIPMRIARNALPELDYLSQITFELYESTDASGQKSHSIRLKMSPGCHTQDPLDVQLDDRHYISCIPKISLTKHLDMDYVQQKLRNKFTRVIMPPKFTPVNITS

[2] = biological target: T2, ScVip1 kinase domain (ScVip1^KD) (Saccharomyces cerevisiae, UniProt Q06685); assay: co-crystal structure, […] Å (crystallized with […] ADP and […] MgCl2); format: binding
T2 construct: gene VIP1; residues 186–522

[3] = biological target: T3, ScVip1 kinase-phosphatase tandem domains (ScVip1^KD-PD) (Saccharomyces cerevisiae, UniProt Q06685); assay: HDX-MS, […] molar excess
T3 construct: gene VIP1
T3 sequence (Q06685 186-1107): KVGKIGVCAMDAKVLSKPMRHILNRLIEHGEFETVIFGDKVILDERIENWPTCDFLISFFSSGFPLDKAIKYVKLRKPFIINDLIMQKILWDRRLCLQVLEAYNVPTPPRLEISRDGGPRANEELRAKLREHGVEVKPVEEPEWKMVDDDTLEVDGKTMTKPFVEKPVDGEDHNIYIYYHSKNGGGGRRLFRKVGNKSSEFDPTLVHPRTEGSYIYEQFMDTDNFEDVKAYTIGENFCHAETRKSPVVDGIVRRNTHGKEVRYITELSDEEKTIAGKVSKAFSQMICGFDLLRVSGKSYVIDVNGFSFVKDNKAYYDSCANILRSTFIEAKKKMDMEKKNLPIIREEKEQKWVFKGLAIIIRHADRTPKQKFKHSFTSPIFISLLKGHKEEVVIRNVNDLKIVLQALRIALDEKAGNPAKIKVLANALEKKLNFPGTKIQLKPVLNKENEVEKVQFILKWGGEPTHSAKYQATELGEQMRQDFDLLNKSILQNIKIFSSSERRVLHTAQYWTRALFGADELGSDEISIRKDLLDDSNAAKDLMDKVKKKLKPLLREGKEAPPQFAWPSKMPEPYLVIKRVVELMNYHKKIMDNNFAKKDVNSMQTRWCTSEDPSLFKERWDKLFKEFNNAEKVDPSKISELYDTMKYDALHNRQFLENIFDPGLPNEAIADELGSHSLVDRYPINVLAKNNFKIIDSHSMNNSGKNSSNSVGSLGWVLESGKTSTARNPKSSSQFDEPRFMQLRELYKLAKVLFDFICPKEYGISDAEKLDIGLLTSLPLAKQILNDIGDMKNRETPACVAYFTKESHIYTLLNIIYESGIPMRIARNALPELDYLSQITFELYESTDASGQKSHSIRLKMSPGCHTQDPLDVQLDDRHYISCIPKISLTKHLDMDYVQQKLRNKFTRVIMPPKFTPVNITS

[4] = biological target: T4, ScVip1 phosphatase domain (ScVip1^PD) (Saccharomyces cerevisiae, UniProt Q06685); assay: NMR time course of […],5-InsP8 hydrolysis; format: biochemical
T4 construct: gene VIP1; residues 536–1107
T4 sequence (Q06685 536-1107): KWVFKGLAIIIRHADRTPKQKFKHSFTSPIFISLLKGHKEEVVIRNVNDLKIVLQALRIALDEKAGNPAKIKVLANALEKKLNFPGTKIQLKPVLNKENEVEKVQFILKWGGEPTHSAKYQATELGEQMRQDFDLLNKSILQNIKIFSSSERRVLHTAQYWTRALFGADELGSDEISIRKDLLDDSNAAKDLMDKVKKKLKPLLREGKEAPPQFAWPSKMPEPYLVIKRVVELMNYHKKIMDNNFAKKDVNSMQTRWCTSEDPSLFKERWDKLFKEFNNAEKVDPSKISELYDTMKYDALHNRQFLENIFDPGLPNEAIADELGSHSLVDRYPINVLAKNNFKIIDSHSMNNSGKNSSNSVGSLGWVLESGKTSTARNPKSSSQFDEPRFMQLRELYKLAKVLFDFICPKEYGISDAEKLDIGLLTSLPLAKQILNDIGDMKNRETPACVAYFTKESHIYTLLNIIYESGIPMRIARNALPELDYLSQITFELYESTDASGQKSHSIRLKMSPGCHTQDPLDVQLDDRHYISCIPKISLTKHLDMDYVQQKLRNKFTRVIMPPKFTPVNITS

[5] = substrate: O=P(O)(O)O[C@@H]1[C@@H](OP(=O)(O)O)[C@@H](OP(=O)(O)O)[C@@H](OP(=O)(O)OP(=O)(O)O)[C@H](OP(=O)(O)O)[C@H]1OP(=O)(O)O; assay: malachite green and NMR phosphatase assays, Michaelis-Menten KM; format: biochemical, Saccharomyces cerevisiae
[6] = substrate: O=P(O)(O)O[C@@H]1[C@@H](OP(=O)(O)O)[C@H](OP(=O)(O)OP(=O)(O)O)[C@@H](OP(=O)(O)O)[C@H](OP(=O)(O)OP(=O)(O)O)[C@@H]1OP(=O)(O)O; assay: as above; format: biochemical, Saccharomyces cerevisiae; conditions: phosphatase active site (RHxxR motif) and GAF-domain substrate channel

## O=P(O)(O)O[C@@H]1[C@@H](OP(=O)(O)O)[C@@H](OP(=O)(O)O)[C@@H](OP(=O)(O)OP(=O)(O)O)[C@H](OP(=O)(O)O)[C@H]1OP(=O)(O)O [1-InsP7]
[1]
  NMR and malachite green phosphatase assays: Glu991 to Ala mutant readily accepts 1-InsP7 as a substrate in both NMR and malachite green-based phosphatase assays

## Nc1ncnc2c1ncn2[C@@H]1O[C@H](COP(=O)(O)OP(=O)(O)O)[C@@H](O)[C@H]1O [ADP]
[2]
  co-crystal structure, 1.18 Å (crystallized with 5 mM ADP and 20 mM MgCl2): The structure of ScVip1^KD in complex with adenosine diphosphate revealed the typical ATP-grasp fold and substrate binding sites

## Nc1ncnc2c1ncn2[C@@H]1O[C@H](CO[P@](=O)(O)O[P@](=O)(O)NP(=O)(O)O)[C@@H](O)[C@H]1O [AMPPNP, AMP-PNP]
[3]
  HDX-MS, 100-fold molar excess: Addition of an ATP substrate analog reveals additional protected regions in the vicinity of the active site of the kinase domain

## O=P(O)(O)O [inorganic phosphate]
[4]
  NMR time course of 1,5-InsP8 hydrolysis: ScVip1^PD is inhibited by Pi in a concentration-dependent manner, as inferred from NMR-based assays

B1: ScVip1 phosphatase domain (ScVip1^PD) (Saccharomyces cerevisiae S288C) (protein)
chain: KWVFKGLAIIIRHADRTPKQKFKHSFTSPIFISLLKGHKEEVVIRNVNDLKIVLQALRIALDEKAGNPAKIKVLANALEKKLNFPGTKIQLKPVLNKENEVEKVQFILKWGGEPTHSAKYQATELGEQMRQDFDLLNKSILQNIKIFSSSERRVLHTAQYWTRALFGADELGSDEISIRKDLLDDSNAAKDLMDKVKKKLKPLLREGKEAPPQFAWPSKMPEPYLVIKRVVELMNYHKKIMDNNFAKKDVNSMQTRWCTSEDPSLFKERWDKLFKEFNNAEKVDPSKISELYDTMKYDALHNRQFLENIFDPGLPNEAIADELGSHSLVDRYPINVLAKNNFKIIDSHSMNNSGKNSSNSVGSLGWVLESGKTSTARNPKSSSQFDEPRFMQLRELYKLAKVLFDFICPKEYGISDAEKLDIGLLTSLPLAKQILNDIGDMKNRETPACVAYFTKESHIYTLLNIIYESGIPMRIARNALPELDYLSQITFELYESTDASGQKSHSIRLKMSPGCHTQDPLDVQLDDRHYISCIPKISLTKHLDMDYVQQKLRNKFTRVIMPPKFTPVNITS
notes: residues 536–1107
[5]
  Km: 70 µM
[6]
  Km: 45 µM
